Test results from patent US4616025A, “Thiazolidine derivatives, process for the preparation and pharmaceutical compositions thereof” (Richter Gedeon Vegyeszeti Gyar RT, priority 1983, dated 1986).
“Also recorded” adds a separate entry of the source.

What was measured:
[1] = tested on: indomethacin-induced intestinal ulceration; assay: Indomethacin-induced fatal intestinal ulceration (15 mg/kg p.o.), inflation technique; type: in vivo, rat (female H-Wistar)
Procedure: Indomethacin-induced intestinal ulceration
Of the non-steroidal antiinflammatory agents indomethacin has not only a gastric-ulcer inducing side-effect but may also cause serious intestinal ulceration. Depending on the dose, the intestinal ulceration may be fatal, peritonitis due to intestinal perforations kills the animals.
(a) Indomethacin-induced fatal intestinal ulceration
Non-fasted, female H-Winstar rats, weighing 120-150 g each were treated orally with a 15 mg/kg dose of indomethacin (in Tween 80 suspension). […] Under these conditions it requires about 48 to 72 hours to detect intenstinal ulceration.
(§1) To evaluate the development of intestinal ulcers the so-called inflation technique by Ezer and Szporny (J. Pharm. Pharmacol. 27, 866 (1975)) was employed. By this method the progress of ulceration can be monitored quantitatively. The tensile strength of the intestinal wall expressed in mmHg weakens gradually parallel with the progress of ulceration.

[2] = tested on: indomethacin-induced non-fatal intestinal ulceration; assay: Indomethacin-induced (7.5 mg/kg p.o.) non-fatal intestinal ulceration, post-treatment, inflation technique; type: in vivo, rat (H-Wistar); conditions: for Non-fatal intestinal ulceration post-treatment, in words: post-treatment 4, 24 and 48 hours after indomethacin 7.5 mg/kg p.o.
Procedure: as §1
(b) Indomethacin-induced non-fatal ulceration
Non-fasted H-Wistar rats weighing 120 to 150 g each were administered 7.5 mg/kg indomethacin orally, to induce non-fatal intestinal ulceration. 4, 24 and 48 hours, respectively, after the indomethacin treatment the animals were treated with the test material orally. The animals were killed 24 hours after the last treatment and 72 hours after the ulcer-induction performed with indomethacin, respectively. Ulceration was evaluated by the inflation technique.

[3] = tested on: gastric necrosis induced by absolute alcohol; assay: Gastric necrosis induced by absolute alcohol (cytoprotection); type: in vivo, rat (female H-Wistar)
Procedure: Gastric necrosis induced by absolute alcohol
Water was allowed ad libitum. The compounds to be tested were administered orally, 30 minutes prior to the administration of 0.5 ml of ethanol/100 g of body weight through a canula. Two hours later the animals were killed by overdosing ether. Stomachs were removed and opened along the major curvature. […] Degree of the cytoprotection was expressed in % related to the control.

[4] = tested on: intestinal ulceration induced by indomethacin; conditions: literature; cited from earlier work
ulceration = conditions: rheumatic patients simultaneously suffering from ulceration; cited from earlier work
gastric acid secretion = assay: Gastric acid secretion in Shay-rats (pylorus ligation, 4 hours); type: in vivo, rat (female H-Wistar)
Procedure: The method was first described by Shay et al in 1945 (Gastroenterology 56, 5-13, 1945). Female H-Wistar rats (120-150 g) were gasted for 24 hours. Water was allowed ad libitum. The pylorus of the animals was ligated in slight ether narcosis. […] 4 hours after treatment the animals were killed by an overdose of ether. The stomach was excised and cut along the large curvature. The volume and the pH of the contents were determined, in certain cases the HCl production was determined by titration.

[5] = tested on: aspirin-induced gastric ulcers; assay: Aspirin-induced stomach ulcer; type: in vivo, rat (female H-Wistar)
Procedure: It is known that the non-steroidal antiinflammatory agents induce gastointestinal ulceration to certain extent (Drugs and Peptic Ulcer, Ed. Pfeiffer, CRC Press, New York 1982). To test anti-ulcer compounds the so-called Aspirin-induced ulcer model is widely used. Female H-Wistar rats weighing 120-150 g each were fasted for 24 hours. Water was allowed ad libitum. The stomach ulcer was induced by oral administration of 100 mg/kg Aspirin (in Tween 80 suspension). The test drug was given simultaneously with the administration of Aspirin, orally. The animals were killed by an overdose of ether, 4 hours after treatment. The stomach was excised and cut along the large curvature. The contents were slightly washed and the haemorrhagic lesions in the glandular surface were counted. When evaluating the test results, the number of ulcers per stomach or the ulcer-free animals were determined.

Toxicological studies = assay: Toxicological studies
Procedure: For intravenous administration the compound was dissolved in dimethyl formamide.

[6] = tested on: gastric ulcers induced by indomethacin; assay: Gastric ulcers induced by a 20 mg/kg oral dose of indomethacin; type: in vivo; conditions: 20 mg/kg oral dose of indomethacin
ulcer = assay: Anti-ulcer activity in general (pharmacological tests); type: in vivo; conditions: compared with cimetidine
From the text: The pharmacological activity of the new compounds has been investigated by the following methods: […]

[7] = indomethacin 15 + 150 mg/kg p.o.
[8] = 7.5 + 3 × 50 mg/kg p.o., 4, 24, 48 hours after indomethacin
[9] = 10 mg/kg i.p., 15 min. prior to operation, n=5
[10] = 10 mg/kg s.c., 15 min prior to operation, n=5
[11] = 10 mg/kg, 15 min prior to operation, n=5
[12] = Aspirin 100 + 1.5 mg/kg p.o., n=10
[13] = Aspirin 100 + 3.0 mg/kg p.o., n=17
[14] = Aspirin 100 + 6.0 mg/kg p.o., n=17
[15] = Aspirin 100 + 12.0 mg/kg p.o., n=14
[16] = Aspirin 100 + 25.0 mg/kg p.o., n=17
[17] = indomethacin 15 + 15 mg/kg p.o.
[18] = indomethacin 15 + 25 mg/kg p.o.
[19] = indomethacin 15 + 50 mg/kg p.o.

CN/C(=N/CCSCc1nc[nH]c1C)NC#N [Cimetidine, N-cyano-N'-methyl-N"-2-[(5-methyl-imidazole-4-yl)-methylthio]-ethyl-guanidine, reference compound]
Intestinal wall resistency in % of normal [1, 7]: 21 % of normal | T.s. of intestinal wall 72 hours after treatment [1, 7]: 47 ± 25 mm Hg | T.s. of intestinal wall 72 hours after indomethacin treatment [2, 8]: 184 ± 7 mm Hg | T.s. of intestinal wall 72 hours after indomethacin treatment ([2]; 7.5 + 3 × 100 mg/kg p.o., 4, 24, 48 hours after indomethacin): 197 ± 10 mm Hg | Non-fatal intestinal ulceration post-treatment, in words [2]: ineffective | Cytoprotection ([3]; 6.0 mg/kg p.o.): 44% | Length of average lesion ([3]; 6.0 mg/kg p.o.): 46.0 ± 10 mm/stomach | Cytoprotection ([3]; 12.0 mg/kg p.o.): 24% | Length of average lesion ([3]; 12.0 mg/kg p.o.): 63.0 ± 18 mm/stomach | Cytoprotection ([3]; 25.0 mg/kg p.o.): 33% | Length of average lesion ([3]; 25.0 mg/kg p.o.): 55.0 ± 12 mm/stomach | Cytoprotection ([3]; 50.0 mg/kg p.o.): 59% | Length of average lesion ([3]; 50.0 mg/kg p.o.): 34.0 ± 10 mm/stomach | Cytoprotection ([3]; 100.0 mg/kg p.o.): 43% | Length of average lesion ([3]; 100.0 mg/kg p.o.): 47.0 ± 16 mm/stomach | Indomethacin-induced intestinal ulceration, in words [4]: cannot inhibit intestinal ulceration induced by indomethacin | Outcome of simultaneous administration of cimetidine and indomethacin (ulceration): perforation in rheumatic patients

N#CN=C1SCCN1Cc1ccccc1 [Compound A, 3-Benzyl-2-cyanimino-thiazolidine]
Acid secretion (gastric acid secretion; 1.25 mg/kg i.p., n=5): 436 μmol HCl/100 g b.w. | Acid secretion (gastric acid secretion; 2.5 mg/kg i.p., n=10): 358 μmol HCl/100 g b.w. | Inhibition of acid secretion (gastric acid secretion; 2.5 mg/kg i.p., n=10): 17% | Acid secretion (gastric acid secretion; 5.0 mg/kg i.p., n=10): 301 μmol HCl/100 g b.w. | Inhibition of acid secretion (gastric acid secretion; 5.0 mg/kg i.p., n=10): 30% | Gastric acid secretion (volume) (gastric acid secretion; [9]): 2.5 ml/100 g, b.w. | Gastric acid secretion, pH (gastric acid secretion; [9]): 3.7 | Gastric acid secretion, vol. inhibition (gastric acid secretion; [9]): 42% | Inhibition of acid secretion (gastric acid secretion; 10.0 mg/kg i.p., n=20): 100% | Gastric acid secretion (volume) (gastric acid secretion; [10]): 2.8 ml/100 g, b.w. | Gastric acid secretion, pH (gastric acid secretion; [10]): 1.5 | Gastric acid secretion, vol. inhibition (gastric acid secretion; [10]): 35% | Gastric acid secretion (volume) (gastric acid secretion; [11]): 2.3 ml/100 g, b.w. | Gastric acid secretion, pH (gastric acid secretion; [11]): 4.1 | Gastric acid secretion, vol. inhibition (gastric acid secretion; [11]): 47% | Inhibition of acid secretion (gastric acid secretion; 25.0 mg/kg i.p., n=5): 100% | ED50 (gastric acid secretion; Rattus norvegicus, ip, 4 h, i.p., Shay rats, read-out: ED50, gastric acid secretion inhibition): 5.3 mg/kg | Gastric acid secretion decreasing effect, in words (gastric acid secretion; Table 1, i.p.): dose-dependent gastric acid secretion decreasing effect | Gastric acid secretion inhibition on oral administration, in words (gastric acid secretion; administered orally): effectively inhibits the gastric acid secretion also when administered orally | Oral absorption (gastric acid secretion; comparison of i.p., s.c. and p.o. data): good oral absorption | Number of ulcers/stomach [5, 12]: 9.5 | Ulcer inhibition [5, 12]: 40% | Ulcer-free animals [5, 12]: 0% | Number of ulcers/stomach [5, 13]: 6.8 | Ulcer inhibition [5, 13]: 57% | Ulcer-free animals [5, 13]: 23% | Number of ulcers/stomach [5, 14]: 4.7 | Ulcer inhibition [5, 14]: 71% | Ulcer-free animals [5, 14]: 29% | Number of ulcers/stomach [5, 15]: 2.2 | Ulcer inhibition [5, 15]: 86% | Ulcer-free animals [5, 15]: 66% | Number of ulcers/stomach [5, 16]: 2.3 | Ulcer inhibition [5, 16]: 85% | Ulcer-free animals [5, 16]: 41% | ED50 ([5]; Rattus norvegicus, po, 4 h, simultaneous administration): 2.1 mg/kg | Aspirin-induced gastric ulceration, in words ([5]; simultaneous administration, depending on the dose): inhibits the formation of the aspirin-induced gastric ulceration | ED100 ([1]; Rattus norvegicus, po, simultaneous with indomethacin 15 mg/kg, read-out: ED100): 50 mg/kg | Intestinal wall resistency in % of normal [1, 17]: 52 % of normal | T.s. of intestinal wall 72 hours after treatment [1, 17]: 120 ± 20 mm Hg | Intestinal wall resistency in % of normal [1, 18]: 83 % of normal | T.s. of intestinal wall 72 hours after treatment [1, 18]: 192 ± 18 mm Hg | Intestinal wall resistency in % of normal [1, 19]: 97 % of normal | T.s. of intestinal wall 72 hours after treatment [1, 19]: 225 ± 6 mm Hg | Indomethacin-induced intestinal ulceration, in words ([1]; simultaneous administration, indomethacin 15 mg/kg p.o.): dose-dependent inhibiting effect; also recorded: inhibits the indomethacin-induced intestinal ulceration | T.s. of intestinal wall 72 hours after indomethacin treatment ([2]; 7.5 + 3 × 25 mg/kg p.o., 4, 24, 48 hours after indomethacin): 176 ± 20 mm Hg | T.s. of intestinal wall 72 hours after indomethacin treatment [2, 8]: 249 ± 4 mm Hg | Non-fatal intestinal ulceration post-treatment, in words [2]: can normalize the tensile strength of the intestine wall | Cytoprotection ([3]; 1.5 mg/kg p.o.): 37% | Length of average lesion ([3]; 1.5 mg/kg p.o.): 52.5 ± 19 mm/stomach | Cytoprotection ([3]; 3.0 mg/kg p.o.): 58% | Length of average lesion ([3]; 3.0 mg/kg p.o.): 34.8 ± 10 mm/stomach | Cytoprotection ([3]; 6.0 mg/kg p.o.): 64% | Length of average lesion ([3]; 6.0 mg/kg p.o.): 29.9 ± 9 mm/stomach | Cytoprotection ([3]; 12.0 mg/kg p.o.): 60% | Length of average lesion ([3]; 12.0 mg/kg p.o.): 32.9 ± 5 mm/stomach | Cytoprotection ([3]; 25.0 mg/kg p.o.): 78% | Length of average lesion ([3]; 25.0 mg/kg p.o.): 18.0 ± 8 mm/stomach | ED50 ([3]; Rattus norvegicus, po, 30 minutes prior to ethanol): 2.8 mg/kg | Absolute alcohol-induced gastric necrosis, in words ([3]; rat, in vivo): effective against the gastric necrosis induced by absolute alochol; also recorded: effective also in the absolute alcohol necrosis test | Sickness / death (Toxicological studies; 100 mg/kg, route not given, within 3 days): sickness of the test animals but no death occurs | Death (Toxicological studies; 250 mg/kg, within 2 weeks): no death is observed | Time to death of the animals (Toxicological studies; 1500 mg/kg i.p.): ≤ 30 min | Behavior and food consumption of animals (Toxicological studies; 1500 mg/kg oral): normal | Further deaths (Toxicological studies; 1500 mg/kg oral, in the next week): no further deaths are observed | Death of animals within 24 hours (Toxicological studies; 1500 mg/kg oral, within 24 hours): 3 animals out of 10 | Therapeutic index (Toxicological studies; first toxicological studies): high therapeutic index | Indomethacin-induced gastric ulcers, in words [6]: effectively inhibited | Spectrum of activity, in words (ulcer): wider spectrum of activity than for example cimetidine | Solubility in water (Solubility in water): insoluble in water
